# Results reported in patent US6362174B1, “Reduced dipeptide analogues as calcium channel antagonitsts” (Warner-Lambert Company, priority 1998, dated 2002).
# Counter-ions that a name gives are not always drawn.
# How the values were obtained:
# N-type Ca2+ channel = target: T1, N-type Ca2+ channel (Homo sapiens, UniProt Q00975); assay: Measurement of N-type Ca2+ channel blocking potencies in IMR32 cells using the fluorescent Ca2+ indicator Indo-1; assay type: cell-based; conditions: IMR-32 cells; for IC50: K+ depolarization, 5 μM nitrendipine to block L-type channels
# T1 construct: host or cells: IMR-32 human neuroblastoma cells, differentiated with dibutyryl cAMP and bromodeoxyuridine
# Experimental: Measurement of N-type Ca^2+ Channel Blocking Potencies of Compounds in IMR32 Cells Using the Fluorescent Ca^2+ Indicator Indo-1
# IMR-32 cells are a human tumoral cell line of neural origin. […] Calcium flux into these cells may be induced by stimulation with elevated potassium concentrations. The L-channel component of calcium flux may be blocked by adding 5 μM nitrendipine. The remaining component of calcium entry into the IMR-32 cells is due to calcium flux through N-type calcium channels. Intracellular calcium concentrations are measured using the fluorescent calcium indicator Indo-1. The effect of drug concentration on calcium uptake is studied.
# The IMR-32 cell line was obtained from the American Type Culture Collection (Rockville, Md.). Cells were grown in Eagle's Minimum Essential Medium with Earle's salts supplemented with 10% fetal bovine serum, 2 mM L-Gln and antibiotic/antimicotic mixture (Gibco). At approximately 80% confluency, differentiation was induced by the addition of 1 mM dibutyryl cAMP and 2.5 μM bromodeoxyuridine to the medium. After 7 to 13 days of differentiation, cells were detached using 0.5 mM EDTA and loaded with 5 μM Indo-1 acetoxymethyl ester (Molecular Probes, Eugene, Oreg.) at […] for 45 minutes. Loaded cells were washed twice, resuspended (˜10^7 cells/mL) in assay buffer (10 mM HEPES/Tris pH 7.4 in Hank's Balanced Salt Solution without bicarbonate or phenol red containing 0.5% bovine serum albumin) and kept on ice until use. Fluorescence measurements were carried out in a Photon Technology International (PTI, South Brunswick, N.J.) Model RF-F3004 spectrofluorometer with dual emission monochromators using excitation at 350 nm and emission at 400 and 490 nm. The instrument was equipped with a thermostated cuvette holder with stirring capabilities as well as with a computer-controlled pump that allowed for reagent addition during measurement. Instrument control and data collection was done by PTI's OSCAR software running on an IBM compatible computer. Different concentrations of the test compounds (60 μL in dimethyl sulfoxide) were added to 5.94 mL of assay buffer containing approximately 3×10^6 loaded cells, and 5 μM Nitrendipine (in 30 μL EtOH) to block L-type Ca^2+ channels. Samples were incubated for 10 minutes at 30° C. and then aliquoted into three 10×10 mm disposable acrylic cuvettes. Emission signals at 400 and 490 nm were acquired from each cuvette at 30° C. for 50 seconds. At 20 seconds after the start of reading, cells were depolarized by the addition of 160 μL of stimulation solution (1M KCl, 68 mM CaCl2) to the cuvette via the computer-controlled pump. Ratio of dual emission signals (400 nm/490 nm), which is proportional to intracellular Ca^2+ concentration, was plotted against time, and the difference between maximal response after stimulation and basal value (before stimulation) was determined. Values obtained in this way were plotted as a function of drug concentration. IC50 values of test compounds were calculated by fitting a 4-parameter logistic function to the data using the least squares method.
# DBA/2 mice = assay: Audiogenic seizure model in DBA/2 mice; assay type: in vivo; conditions: for protection: 30 mg/kg, 15 minutes posttreatment time
# Experimental: Audiogenic Seizure Model in DBA/2 Mice
# Compounds of the present invention were dissolved in water using 10% (weight/volume) Emulphor (GAF Corp., Wayne, N.J.) surfactant. Substances were administered by intravenous injection into the retro-orbital venous sinus. All testing was performed 15 minutes or 45 minutes after drug injection. All the male mice, 3 to 4 weeks old, were obtained from Jackson Laboratories, Bar Harbour, Me. Immediately before anticonvulsant testing, mice were placed upon a wire mesh, 4 inches square suspended from a steel rod. […] Any mouse falling from the wire mesh was scored as ataxic.
# Mice were placed into an enclosed acrylic plastic chamber (21 cm height, approximately 30 cm diameter) with a high-frequency speaker (4 cm diameter) in the center of the top lid. An audio signal generator (Protek model B-810) was used to produce a continuous sinusoidal tone that was swept linearly in frequency between 8 kHz and 16 kHz once each 10 msec. The average sound pressure level (SPL) during stimulation was approximately 100 dB at the floor of the chamber. Mice were placed within the chamber and allowed to acclimatize for 1 minute. DBA/2 mice in the vehicle-treated group responded to the sound stimulus (applied until tonic extension occurred, or for a maximum of 60 seconds) with a characteristic seizure sequence consisting of wild running followed by clonic seizures, and later by tonic extension, and finally by respiratory arrest and death in 80% or more of the mice. In vehicle-treated mice, the entire sequence of seizures to respiratory arrest lasts approximately 15 to 20 seconds.
# The incidence of all the seizure phases in the drug-treated and vehicle-treated mice was recorded, and the occurrence of tonic seizures were used for calculating anticonvulsant ED values by probit analysis. Mice were used only once for testing at each time and dose point.
# [1] = 10 mg/kg IV, 15 minutes post treatment
# [2] = 30 mg/kg IV, 15 minutes post treatment
# [3] = 30 mg/kg IV, 45 minutes post treatment
# [4] = 10 mg/kg IV, 15 minutes post treatment, dihydrochloride
# [5] = 10 mg/kg IV, 45 minutes post treatment, dihydrochloride
# T1 sequence (Q00975 whole entry): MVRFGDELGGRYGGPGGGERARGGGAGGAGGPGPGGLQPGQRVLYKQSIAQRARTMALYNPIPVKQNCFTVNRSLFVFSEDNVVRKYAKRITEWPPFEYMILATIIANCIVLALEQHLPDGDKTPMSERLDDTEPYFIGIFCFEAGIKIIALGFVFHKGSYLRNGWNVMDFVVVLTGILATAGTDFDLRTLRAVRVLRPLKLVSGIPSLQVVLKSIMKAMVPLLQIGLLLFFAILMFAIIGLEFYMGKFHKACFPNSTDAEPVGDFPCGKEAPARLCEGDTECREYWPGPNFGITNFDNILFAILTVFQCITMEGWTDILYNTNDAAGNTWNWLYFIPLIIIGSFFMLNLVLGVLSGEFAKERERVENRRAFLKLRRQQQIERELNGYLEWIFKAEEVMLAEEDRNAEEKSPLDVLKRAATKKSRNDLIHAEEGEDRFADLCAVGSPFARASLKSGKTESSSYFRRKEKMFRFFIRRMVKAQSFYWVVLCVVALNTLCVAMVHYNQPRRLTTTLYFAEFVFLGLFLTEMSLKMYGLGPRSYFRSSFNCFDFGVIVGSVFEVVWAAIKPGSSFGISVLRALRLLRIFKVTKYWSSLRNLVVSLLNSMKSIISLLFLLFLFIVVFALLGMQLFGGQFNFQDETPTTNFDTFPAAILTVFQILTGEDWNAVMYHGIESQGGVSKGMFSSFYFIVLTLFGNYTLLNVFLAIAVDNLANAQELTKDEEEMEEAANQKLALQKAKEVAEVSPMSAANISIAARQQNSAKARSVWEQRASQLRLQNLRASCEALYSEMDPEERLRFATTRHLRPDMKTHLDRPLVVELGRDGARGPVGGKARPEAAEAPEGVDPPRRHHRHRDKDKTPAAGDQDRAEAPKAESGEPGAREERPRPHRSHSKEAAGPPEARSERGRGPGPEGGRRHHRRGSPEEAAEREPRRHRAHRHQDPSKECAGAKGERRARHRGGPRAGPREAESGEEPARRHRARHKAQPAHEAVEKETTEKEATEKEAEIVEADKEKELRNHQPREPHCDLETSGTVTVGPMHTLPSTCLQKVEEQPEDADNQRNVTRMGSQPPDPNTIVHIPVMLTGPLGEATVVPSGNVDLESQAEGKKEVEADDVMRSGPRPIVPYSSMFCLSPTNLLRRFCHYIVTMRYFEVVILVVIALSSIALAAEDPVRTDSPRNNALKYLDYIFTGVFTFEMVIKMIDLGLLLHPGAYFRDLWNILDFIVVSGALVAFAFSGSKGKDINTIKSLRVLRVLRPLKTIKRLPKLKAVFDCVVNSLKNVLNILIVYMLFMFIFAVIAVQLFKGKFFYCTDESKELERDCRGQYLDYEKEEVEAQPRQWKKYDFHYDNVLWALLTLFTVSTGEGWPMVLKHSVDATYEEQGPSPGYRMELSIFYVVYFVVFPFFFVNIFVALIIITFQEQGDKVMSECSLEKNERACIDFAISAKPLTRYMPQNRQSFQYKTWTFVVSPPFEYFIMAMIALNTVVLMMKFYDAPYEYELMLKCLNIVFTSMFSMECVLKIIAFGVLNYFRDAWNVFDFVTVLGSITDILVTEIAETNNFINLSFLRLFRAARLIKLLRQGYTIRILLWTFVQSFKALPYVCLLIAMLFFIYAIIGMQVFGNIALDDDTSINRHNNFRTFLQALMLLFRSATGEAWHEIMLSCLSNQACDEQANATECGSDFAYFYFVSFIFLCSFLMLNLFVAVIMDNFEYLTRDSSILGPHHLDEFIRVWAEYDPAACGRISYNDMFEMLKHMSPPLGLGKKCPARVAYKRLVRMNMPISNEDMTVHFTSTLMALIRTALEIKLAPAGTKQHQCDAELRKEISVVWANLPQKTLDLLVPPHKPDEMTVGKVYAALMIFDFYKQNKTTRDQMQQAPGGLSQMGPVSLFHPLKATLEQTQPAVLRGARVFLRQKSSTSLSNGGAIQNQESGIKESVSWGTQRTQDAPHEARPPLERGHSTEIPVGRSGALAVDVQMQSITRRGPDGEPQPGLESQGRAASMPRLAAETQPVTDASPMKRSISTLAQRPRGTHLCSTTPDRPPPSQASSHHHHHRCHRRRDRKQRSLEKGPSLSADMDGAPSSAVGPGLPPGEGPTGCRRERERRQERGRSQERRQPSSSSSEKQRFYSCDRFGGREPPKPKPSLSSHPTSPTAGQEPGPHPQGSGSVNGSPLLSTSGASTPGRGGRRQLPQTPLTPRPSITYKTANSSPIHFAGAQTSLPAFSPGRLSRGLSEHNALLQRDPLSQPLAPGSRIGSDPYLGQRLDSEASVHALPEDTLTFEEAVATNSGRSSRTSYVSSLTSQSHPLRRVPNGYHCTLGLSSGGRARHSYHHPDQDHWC
# T1 sequence (Q02641 whole entry partner): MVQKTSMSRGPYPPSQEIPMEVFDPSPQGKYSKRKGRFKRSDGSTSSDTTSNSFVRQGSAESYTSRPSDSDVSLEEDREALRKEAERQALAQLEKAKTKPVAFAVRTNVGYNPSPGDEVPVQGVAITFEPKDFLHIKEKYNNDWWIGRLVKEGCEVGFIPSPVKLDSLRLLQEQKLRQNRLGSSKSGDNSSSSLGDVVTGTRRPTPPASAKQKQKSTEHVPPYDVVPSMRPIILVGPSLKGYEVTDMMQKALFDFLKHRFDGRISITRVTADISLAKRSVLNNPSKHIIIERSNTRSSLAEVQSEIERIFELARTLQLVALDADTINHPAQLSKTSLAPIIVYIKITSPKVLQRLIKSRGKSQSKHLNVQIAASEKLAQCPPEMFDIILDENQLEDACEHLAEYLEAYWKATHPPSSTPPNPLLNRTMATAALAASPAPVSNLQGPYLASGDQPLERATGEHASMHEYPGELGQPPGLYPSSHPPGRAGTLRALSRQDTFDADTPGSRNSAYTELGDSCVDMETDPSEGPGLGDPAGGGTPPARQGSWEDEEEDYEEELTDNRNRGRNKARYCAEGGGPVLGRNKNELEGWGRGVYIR
# T1 sequence (P54289 25-956 partner limits assumed): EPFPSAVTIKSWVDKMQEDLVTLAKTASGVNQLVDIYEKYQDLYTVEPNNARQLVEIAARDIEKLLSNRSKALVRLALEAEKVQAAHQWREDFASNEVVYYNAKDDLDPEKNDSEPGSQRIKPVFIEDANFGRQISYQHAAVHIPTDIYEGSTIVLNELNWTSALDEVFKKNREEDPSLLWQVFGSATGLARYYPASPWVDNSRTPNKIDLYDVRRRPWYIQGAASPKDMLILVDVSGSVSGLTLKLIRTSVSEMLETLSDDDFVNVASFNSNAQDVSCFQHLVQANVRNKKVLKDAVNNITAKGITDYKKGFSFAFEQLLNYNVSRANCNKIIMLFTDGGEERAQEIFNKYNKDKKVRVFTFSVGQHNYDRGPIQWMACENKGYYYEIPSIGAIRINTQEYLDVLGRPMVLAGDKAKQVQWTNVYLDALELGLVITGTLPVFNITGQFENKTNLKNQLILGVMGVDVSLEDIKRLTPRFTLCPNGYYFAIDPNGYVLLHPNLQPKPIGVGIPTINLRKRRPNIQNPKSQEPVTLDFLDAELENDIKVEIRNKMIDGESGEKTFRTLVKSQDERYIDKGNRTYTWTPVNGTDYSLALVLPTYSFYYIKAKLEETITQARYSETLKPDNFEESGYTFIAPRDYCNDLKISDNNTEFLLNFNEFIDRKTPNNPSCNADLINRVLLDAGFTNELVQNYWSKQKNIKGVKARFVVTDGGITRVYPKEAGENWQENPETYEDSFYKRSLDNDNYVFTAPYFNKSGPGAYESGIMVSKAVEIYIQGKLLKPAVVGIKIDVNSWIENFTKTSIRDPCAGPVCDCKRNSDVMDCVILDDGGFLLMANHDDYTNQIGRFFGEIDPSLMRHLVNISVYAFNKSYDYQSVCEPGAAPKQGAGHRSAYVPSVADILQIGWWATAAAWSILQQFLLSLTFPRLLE
# T1 sequence (P54289 957-1103 partner limits assumed): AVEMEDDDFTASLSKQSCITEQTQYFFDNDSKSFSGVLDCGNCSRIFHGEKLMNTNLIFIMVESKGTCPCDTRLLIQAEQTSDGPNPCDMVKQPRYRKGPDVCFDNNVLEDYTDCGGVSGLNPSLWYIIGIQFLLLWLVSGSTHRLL
smiles,measurement,setting,value
"CC(C)C[C@H](NC(=O)N1CCCCCC1)C(=O)N[C@H](COC(C)(C)C)Cc1ccc(OCc2ccccc2)cc1 (relative stereo) [Example 1, [S-(R*,R*)]-Azepane-1-carboxylic acid {1-[2-(4-benzyloxy-phenyl)-1-tert-butoxymethyl-ethylcarbamoyl]-3-methyl-butyl}-amide]",IC50,N-type Ca2+ channel,0.21 µM
same,Number of Mice Protected from Tonic Convulsions / number of mice tested,DBA/2 mice; [1],1/5
same,Number of Mice Protected from Tonic Convulsions / number of mice tested,DBA/2 mice; [2],4/5
same,Number of Mice Protected from Tonic Convulsions / number of mice tested,DBA/2 mice; [3],2/5
same,protection,DBA/2 mice,80%
"CC(C)C[C@@H](CN[C@@H](Cc1ccc(OCc2ccccc2)cc1)C(=O)NC(C)(C)C)NC(=O)N1CCCCCC1 (relative stereo) [Example 2, [S-(R*,R*)]Azepane-1-carboxylic acid (1-{[2-(4-benzyloxy-phenyl)-1-tert-butylcarbamoyl-ethylamino]-methyl}-3-methyl-butyl)-amide dihydrochloride salt]",IC50,N-type Ca2+ channel,0.19 µM
same,Number of Mice Protected from Tonic Convulsions / number of mice tested,DBA/2 mice; [1],1/5
same,Number of Mice Protected from Tonic Convulsions / number of mice tested,DBA/2 mice; [2],5/5
same,Number of Mice Protected from Tonic Convulsions / number of mice tested,DBA/2 mice; [3],1/5
same,protection,DBA/2 mice,100%
"CC(C)C[C@@H](C(=O)N[C@@H](Cc1ccc(OCc2ccccc2)cc1)CN1CCOCC1)N(C)C (relative stereo) [Example 3, [S-(R*,R*)]-2-Dimethylamino-4-methyl-pentanoic acid [2-(4-benzyloxy-phenyl)-1-morpholin-4-ylmethyl-ethyl]-amide]",IMR32 % @ 1 μM,"N-type Ca2+ channel; 1 μM compound, 5 μM nitrendipine",6% @ 1 μM
same,IMR32 % @ 10 μM,"N-type Ca2+ channel; 10 μM compound, 5 μM nitrendipine",48% @ 10 μM
same,melting point,,113 to 114 °C
"CC(C)C[C@H](NC(=O)N1CCCCCC1)C(=O)N[C@@H](Cc1ccc(OCc2ccccc2)cc1)CN1CCOCC1 (relative stereo) [Example 4, [S-(R*,R*)]-Azepane-1-carboxylic acid {1-[2-(4-benzyloxy-phenyl) -1-morpholin-4-ylmethyl-ethylcarbamoyl]-3-methyl-butyl}-amide]",IC50,N-type Ca2+ channel,1.2 µM
"CC(C)C[C@H](NC(=O)N1CCCCCC1)C(=O)N[C@H](CNC(C)(C)C)Cc1ccc(OCc2ccccc2)cc1 (relative stereo) [Example 5, [S-(R*,R*)]Azepane-1-carboxylic acid {1-[2-(4-benzyloxy-phenyl)-1-(tert-butylamino-methyl)-ethylcarbamoyl]-3-methyl-butyl}-amide trifloroacetate salt]",IC50,N-type Ca2+ channel,1.1 µM
"CC(C)CC(N)CN[C@@H](Cc1ccc(OCc2ccccc2)cc1)C(=O)NC(C)(C)C (single isomer, unassigned) [Example 7, dihydrochloride]",IC50,N-type Ca2+ channel,1.2 µM
same,Number of Mice Protected from Tonic Convulsions / number of mice tested,DBA/2 mice; [4],2/5
same,Number of Mice Protected from Tonic Convulsions / number of mice tested,DBA/2 mice; [5],1/5
"CC(C)CC(N)CN[C@@H](Cc1ccc(OCc2ccccc2)cc1)C(=O)NC(C)(C)C (single isomer, unassigned) [Example 8, 2-(2-Amino-4-methyl-pentylamino)-3-(4-benzyloxy-phenyl)-N-tert-butyl-propionamide dihydrochloride]",IC50,N-type Ca2+ channel,1 µM
same,Number of Mice Protected from Tonic Convulsions / number of mice tested,DBA/2 mice; [4],0/5
same,Number of Mice Protected from Tonic Convulsions / number of mice tested,DBA/2 mice; [5],0/5
"CCN(CC)C[C@H](Cc1ccc(OCc2ccccc2)cc1)NC(=O)[C@H](CC(C)C)NC(=O)N1CCCCCC1 [Example 6, (S,S)-Azepane-1-carboxylic acid {1-[2-(4-benzyloxy-phenyl)-1-diethylaminomethyl-ethylcarbamoyl]-3-methyl-butyl}-amide]",IC50,N-type Ca2+ channel,1.1 µM
